In patent publication US12312359B2 (Vitae Pharmaceuticals, LLC, priority 2016, dated 2025):
pEC50, pIC50: −log10 of the molar value.

Assays:
[1] = target: T1, biotinylated wild-type menin and MLL-AF9 fusion protein (menin/MLL binding) (Homo sapiens, UniProt O00255); assay: Assay 1: menin/MLL binding AlphaLISA assay, wild-type menin; details: Table 30; column head does not say wild-type or mutated menin
T1 construct: made in house; host or cells: menin: E. coli; MLL-AF9-FLAG: HEK293 cells, used as cleared lysate
T1 sequence (O00255 1-610): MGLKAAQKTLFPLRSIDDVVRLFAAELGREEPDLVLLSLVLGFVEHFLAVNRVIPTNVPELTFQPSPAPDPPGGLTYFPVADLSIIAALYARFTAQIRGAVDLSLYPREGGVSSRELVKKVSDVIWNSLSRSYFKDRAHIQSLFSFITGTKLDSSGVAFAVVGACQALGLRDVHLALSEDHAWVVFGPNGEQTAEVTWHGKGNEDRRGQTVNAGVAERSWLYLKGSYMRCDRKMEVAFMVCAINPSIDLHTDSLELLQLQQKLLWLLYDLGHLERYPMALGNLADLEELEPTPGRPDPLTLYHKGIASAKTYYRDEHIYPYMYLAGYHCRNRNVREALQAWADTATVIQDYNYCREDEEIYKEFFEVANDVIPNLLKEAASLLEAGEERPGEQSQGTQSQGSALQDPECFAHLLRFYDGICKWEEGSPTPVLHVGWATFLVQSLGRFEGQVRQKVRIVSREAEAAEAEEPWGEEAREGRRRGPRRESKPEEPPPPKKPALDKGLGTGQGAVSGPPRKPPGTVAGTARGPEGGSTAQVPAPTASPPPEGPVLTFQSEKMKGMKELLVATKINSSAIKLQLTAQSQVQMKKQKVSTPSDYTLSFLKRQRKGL
Outline: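 Compound was preincubated 30 min at room temperature with biotinylated menin (5 nM) and MLL-AF9-FLAG lysate from HEK293 cells, pH 7.4 buffer with 5% DMSO and DTT. Bead-based Alpha signal after 60 min with streptavidin donor and anti-FLAG acceptor beads; four-parameter logistic fit gave IC50.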

[2] = tested on: human acute monocytic leukemia cell line MV-4-11; assay: Assay 2: cell proliferation assay (ATP quantitation, CellTiter-Glo), MV-4-11; format: cell-based; details: MV-4-11 cells
Outline: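 Read-out is CellTiter-Glo luminescence quantifying ATP. Compound exposure lasted 72 h at 37° C., 5% CO2, with 1.67×10^4 MV-4-11 cells per well in 10% FBS medium, alongside HL-60 toxicity-control cells.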

Row | SMILES | pIC50 [1] | pEC50 ([2]; Homo sapiens, MV4-11, 72 h) | pEC50 ([2]; 72 h)
1 | CCN(C(=O)C(C)C)c1cc(F)ccc1Oc1cncnc1N1CC2(CCN(C[C@H]3CC[C@H](NC(=O)OC)CC3)CC2)C1 [Example 85, methyl ((1r,4r)-4-((2-(5-(2-(N-ethylisobutyramido)-4-fluorophenoxy)pyrimidin-4-yl)-2,7-diazaspiro[3.5]nonan-7-yl)methyl)cyclohexyl) carbamate] | > 7.00 | 6.00 to 7.00 | 
2 | CC(C)c1ccccc1-c1cc(F)ccc1Oc1cncnc1N1CCC2(CCN(Cc3ccc4[nH]c(=O)[nH]c4c3)C2)C1 (single isomer, unassigned) [Example 41A, 5-((7-(5-((5-fluoro-2′-isopropyl-[1,1′-biphenyl]-2-yl)oxy)pyrimidin-4-yl)-2,7-diazaspiro[4.4]nonan-2-yl)methyl)-1H-benzo[d]imidazol-2(3H)-one] | > 7.00 | > 7.00 | 
3 | CC(C)c1ncncc1-c1cc(F)ccc1Oc1cncnc1N1CC2(CC(NCc3ccc(F)cc3)CO2)C1 (stereo not drawn) [Example 18, 2-(5-(4-fluoro-2-(4-isopropylpyrimidin-5-yl)phenoxy)pyrimidin-4-yl)-N-(4-fluorobenzyl)-5-oxa-2-azaspiro[3.4]octan-7-amine] | > 7.00 | 6.00 to 7.00 | 
4 | CC(C)N(C(=O)c1cc(F)ccc1Oc1cncnc1N1CC2(CCN(CC3CCOCC3)CC2)C1)C(C)C [Example 101, 5-fluoro-N,N-diisopropyl-2-((4-(7-((tetrahydro-2H-pyran-4-yl)methyl)-2,7-diazaspiro[3.5]nonan-2-yl)pyrimidin-5-yl)oxy)benzamide] | > 7.00 | 6.00 to 7.00 | 
5 | CC(CO)c1ccccc1-c1cc(F)ccc1Oc1cncnc1N1CCC2(CCN(Cc3ccc4[nH]c(=O)[nH]c4c3)C2)C1 (stereo not drawn) [Example 69, 5-((7-(5-((5-fluoro-2′-(1-hydroxypropan-2-yl)-[1,1′-biphenyl]-2-yl)oxy)pyrimidin-4-yl)-2,7-diazaspiro[4.4]nonan-2-yl)methyl)-1H-benzo[d]imidazol-2(3H)-one] | > 7.00 | > 7.00 | 
6 | CC(C)N(C)C(=O)c1cc(F)ccc1Oc1cncnc1N1CCC2(CCN(Cc3ccc4c(c3)NC(=O)C4(C)C#N)C2)C1 (stereo not drawn) [Example 125, 2-((4-(7-((3-cyano-3-methyl-2-oxoindolin-6-yl)methyl)-2,7-diazaspiro [4.4]nonan-2-yl)pyrimidin-5-yl)oxy)-5-fluoro-N-isopropyl-N-methylbenzamide] | > 7.00 | > 7.00 | 
7 | CC(C)N(C)C(=O)c1cc(F)ccc1Oc1cncnc1N1CCC2(CCN(Cc3ccc4[nH]c(=O)[nH]c4c3)C2)C1 (single isomer, unassigned) [Example 183B, 5-fluoro-N-isopropyl-N-methyl-2-((4-(7-((2-oxo-2,3-dihydro-1H-benzo[d]imidazol-5-yl)methyl)-2,7-diazaspiro[4.4]nonan-2-yl)pyrimidin-5-yl)oxy)benzamide] | > 7.00 |  | > 7.00
8 | CCC(C)(OC)c1cc(F)ccc1Oc1cncnc1N1CCC2(CCN(Cc3ccc4[nH]c(=O)[nH]c4c3)C2)C1 (stereo not drawn) [Example 33, 5-((7-(5-(4-fluoro-2-(2-methoxybutan-2-yl)phenoxy)pyrimidin-4-yl)-2,7-diazaspiro[4.4]nonan-2-yl)methyl)-1,3-dihydro-2H-benzo[d]imidazol-2-one] | > 7.00 | 6.00 to 7.00 | 
9 | CC(C)N(C(=O)c1cc(F)ccc1Oc1cncnc1N1CC2(CCN(C3CCc4cc(F)ccc4C3)C2)C1)C(C)C (stereo not drawn) [Example 114, 5-fluoro-2-((4-(6-(6-fluoro-1,2,3,4-tetrahydronaphthalen-2-yl)-2,6-diazaspiro[3.4]octan-2-yl)pyrimidin-5-yl)oxy)-N,N-diisopropylbenzamide] | > 7.00 | 6.00 to 7.00 | 
10 | CNC(=O)C1CC1c1cc(F)ccc1Oc1cncnc1N1CCC2(CCN(Cc3ccc4[nH]c(=O)[nH]c4c3)C2)C1 (stereo not drawn) [Example 38, 2-(5-fluoro-2-((4-(7-((2-oxo-2,3-dihydro-1H-benzo[d]imidazol-5-yl)methyl)-2,7-diazaspiro[4.4]nonan-2-yl)pyrimidin-5-yl)oxy)phenyl)-N-methylcyclopropane carboxamide] | > 7.00 | ≤ 6.00 | 
11 | CCC(O)(CC)c1cc(F)ccc1Oc1cncnc1N1CCC2(CCN(Cc3ccc4[nH]c(=O)[nH]c4c3)C2)C1 (stereo not drawn) [Example 34, 5-((7-(5-(4-fluoro-2-(3-hydroxypentan-3-yl)phenoxy)pyrimidin-4-yl)-2,7-diazaspiro[4.4]nonan-2-yl)methyl)-1,3-dihydro-2H-benzo[d]imidazol-2-one] | > 7.00 | ≤ 6.00 | 
12 | CCN(C(=O)C(C)C)c1cc(F)ccc1Oc1cncnc1N1CC2(CCN(CC3CCCCC3)C2)C1 [Example 158, N-(2-((4-(6-(cyclohexylmethyl)-2,6-diazaspiro[3.4]octan-2-yl)pyrimidin-5-yl)oxy)-5-fluorophenyl)-N-ethylisobutyramide] | > 7.00 | 6.00 to 7.00 | 
13 | O=c1[nH]c2ccc(CN3CCC4(CCN(c5ncncc5Oc5ccc(F)cc5CN5CCOCC5)C4)C3)cc2[nH]1 (stereo not drawn) [Example 70, 5-((7-(5-(4-fluoro-2-(morpholinomethyl)phenoxy)pyrimidin-4-yl)-2,7-diazaspiro[4.4]nonan-2-yl)methyl)-1H-benzo[d]imidazol-2(3H)-one] | > 7.00 | > 7.00 | 
14 | CC(C)N(C)C(=O)c1cc(F)ccc1Oc1cncnc1N1CCC2(CCN(Cc3c[nH]c4cc(C#N)ccc34)C2)C1 (stereo not drawn) [Example 194, 2-((4-(7-((6-cyano-1H-indol-3-yl)methyl)-2,7-diazaspiro[4.4]nonan-2-yl)pyrimidin-5-yl)oxy)-5-fluoro-N-isopropyl-N-methylbenzamide] | > 7.00 | 6.00 to 7.00 | 
15 | COCCn1c(=O)[nH]c2cc(CN3CCC4(CCN(c5ncncc5Oc5ccc(F)cc5-c5cncnc5C(C)C)C4)C3)ccc21 (stereo not drawn) [Example 131, 5-((7-(5-(4-fluoro-2-(4-isopropylpyrimidin-5-yl)phenoxy)pyrimidin-4-yl)-2,7-diazaspiro[4.4]nonan-2-yl)methyl)-1-(2-methoxyethyl)-1,3-dihydro-2H-benzo[d]imidazol-2-one] | > 7.00 | > 7.00 | 
16 | N#Cc1ccc(-c2cc(F)ccc2Oc2cncnc2N2CCC3(CCN(Cc4ccc5[nH]c(=O)[nH]c5c4)C3)C2)c(C2CC2)c1 (racemic) [Example 42, 2-cyclopropyl-5′-fluoro-2′-((4-(7-((2-oxo-2,3-dihydro-1H-benzo[d]imidazol-5-yl)methyl)-2,7-diazaspiro[4.4]nonan-2-yl)pyrimidin-5-yl)oxy)-[1,1′-biphenyl]-4-carbonitrile] | > 7.00 | > 7.00 | 
17 | CC(C)N(C(=O)c1cc(F)ccc1Oc1cncnc1N1CCC2(CCN(Cc3ccc4c(c3)[nH]c(=O)n4CCO)C2)C1)C(C)C (single isomer, unassigned) [Example 3A, 5-fluoro-2-((4-(7-((1-(2-hydroxyethyl)-2-oxo-2,3-dihydro-1H-benzo[d]imidazol-5-yl)methyl)-2,7-diazaspiro[4.4]nonan-2-yl)pyrimidin-5-yl)oxy)-N,N-diisopropylbenzamide] | > 7.00 | > 7.00 | 
18 | Cn1c(-c2cc(F)ccc2Oc2cncnc2N2CCC3(CCN(Cc4ccc5c(c4)[nH]c(=O)n5CCO)C3)C2)c(C2CC2)ccc1=O (single isomer, unassigned) [Example 81A, 5-((7-(5-(2-(3-cyclopropyl-1-methyl-6-oxo-1,6-dihydropyridin-2-yl)-4-fluorophenoxy)pyrimidin-4-yl)-2,7-diazaspiro[4.4]nonan-2-yl)methyl)-1-(2-hydroxyethyl)-1H-benzo[d]imidazol-2(3H)-one] | > 7.00 | 6.00 to 7.00 | 
19 | CC(C)N(C)C(=O)c1cc(F)ccc1Oc1cncnc1N1CC2(CC(NC3CCOCC3)C2)C1 [Example 92, 5-fluoro-N-isopropyl-N-methyl-2-((4-(6-((tetrahydro-2H-pyran-4-yl)amino)-2-azaspiro[3.3]heptan-2-yl)pyrimidin-5-yl)oxy)benzamide] | > 7.00 | 6.00 to 7.00 | 
20 | CC(C)c1ncncc1-c1cc(F)ccc1Oc1cncnc1N1CC2(CN(CC3CCCC(F)(F)C3)C2)C1 (stereo not drawn) [Example 232, 2-((3,3-difluorocyclohexyl)methyl)-6-(5-(4-fluoro-2-(4-isopropylpyrimidin-5-yl)phenoxy)pyrimidin-4-yl)-2,6-diazaspiro[3.3] heptane] | > 7.00 | > 7.00 | 
21 | N#Cc1ccc(-c2cc(F)ccc2Oc2cncnc2N2CCC3(CCC(N)(Cc4ccccc4)C3)C2)c(C2CC2)c1 (single isomer, unassigned) [Example 250B, 2′-((4-(7-amino-7-benzyl-2-azaspiro[4.4]nonan-2-yl)pyrimidin-5-yl)oxy)-2-cyclopropyl-5′-fluoro-[1,1′-biphenyl]-4-carbonitrile] | > 7.00 | ≤ 6.00 | 
